Reference: patent US11602534B2, “Pyrimidine derivative kinase inhibitors” (HEFEI INSTITUTES OF PHYSICAL SCIENCE, CHINESE ACADEMY OF …, priority 2017, dated 2023)
Counter-ions that a name gives are not always drawn.

Tests used:
[1] = tested on: BaF3; assay: Proliferation of BaF3 cells, CCK8 cell viability assay; format: cell-based; conditions: Mus musculus, 72 hours
Summary of the method: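 Parental murine BaF3 and IL-3-independent BaF3 transformants driven by TEL–cKIT, TEL–PDGFRα or TEL–PDGFRβ, with human kinase domains stably transduced by retrovirus. CCK8 dehydrogenase read-out gives GI50 (μM).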

[2] = tested on: P210-BaF3; assay: Proliferation of P210-BaF3 cells, CCK8 cell viability assay; format: cell-based; conditions: Mus musculus, 72 hours, stably expressing BCR-ABL mutant activated kinase
Summary of the method: (§1)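 Human kinase-region sequences were PCR-amplified, fused behind N-terminal TEL in MSCV-Puro and stably introduced into mouse BaF3 by retrovirus. IL-3 was then removed to give kinase-dependent lines. Compound effects on these and on parental BaF3 are scored as GI50 (μM) via CCK8 viable-cell quantification.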

[3] = tested on: P210/T315I-BaF3; assay: Proliferation of P210/T315I-BaF3 cells, CCK8 cell viability assay; format: cell-based; conditions: Mus musculus, 72 hours, stably expressing BCR-ABL/T315I
Text: (§2) In this example the following cells were used: […] (purchased from ATCC), mouse P210-BaF3 (stably expressing BCR-ABL mutant activated kinase), mouse P210/T315I-BaF3 (stably expressing BCR-ABL/T315I mutant activated kinase), mouse FLT3-ITD-BaF3 (stably expressing FLT3/ITD mutant activated kinase), mouse TEL-FLT3-BaF3 (stably expressing FLT3 kinase), mouse TEL-cKIT-BaF3 (stably expressing cKIT kinase), mouse BaF3-tel/T670I-cKit (stably expressing cKIT/T670I mutant activated kinase), mouse Tel-VEGFR2-BaF3 (stably expressing VEGFR2 kinase), mouse Tel-PDGFRα-BaF3 (stably expressing PDGFRα kinase), mouse Tel-PDGFRβ-BaF3 (stably expressing PDGFRβ kinase), mouse Tel-RET-BaF3 (stably expressing RET kinase). The above cell lines were all constructed by our laboratory according to the following method: the kinase region sequences of human P210, P210/T315I, FLT3/ITD, FLT3, cKIT, cKIT/T670I, VEGFR2, PDGFRα, PDGFRβ, RET were respectively amplified by PCR, and inserted into MSCV-Puro vectors having N-terminal TEL or TPR fragments (Clontech). The vectors were stably transfected into mouse BaF3 cells by means of retrovirus, and the growth factor IL-3 were removed, eventually obtaining cell lines that depend on transferred protein P210, P210/T315I, FLT3/ITD, FLT3, cKIT, cKIT/T670I, VEGFR2, PDGFRα, PDGFRβ, or RET.
(§3) GI50 (unit: μM) was calculated by quantifying the number of living cells based on quantitative measurement of reductive dehydrogenase in living cells with CCK8 cell viability assay kit (Bestbio, China).

[4] = tested on: Tel-cKit-BaF3; assay: Proliferation of Tel-cKit-BaF3 cells, CCK8 cell viability assay; format: cell-based, mouse; conditions: Mus musculus; 72 hours, CCK8; stably expressing cKIT kinase
Summary of the method: (§4)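 Murine BaF3 cells made IL-3-independent by retroviral transduction of human kinase domains fused to N-terminal TEL or TPR fragments; parental BaF3 included. Living cells quantified by CCK8 (dehydrogenase activity) read-out, giving GI50 in μM.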

[5] = tested on: Tel-cKit/T670I-BaF3; assay: Proliferation of Tel-cKit/T670I-BaF3 cells, CCK8 cell viability assay; format: cell-based; conditions: Mus musculus, 72 hours, stably expressing cKIT/T670I
Summary of the method: as §4

[6] = tested on: Tel-FLT3-BaF3; assay: Proliferation of Tel-FLT3-BaF3 cells, CCK8 cell viability assay; format: cell-based; conditions: Mus musculus, 72 hours, stably expressing FLT3 kinase
Summary of the method: as §1

[7] = tested on: FLT3-ITD-BaF3; assay: Proliferation of FLT3-ITD-BaF3 cells, CCK8 cell viability assay; format: cell-based; conditions: Mus musculus, 72 hours, stably expressing FLT3/ITD
Summary of the method: as §1

[8] = tested on: Tel-RET-BaF3; assay: Proliferation of Tel-RET-BaF3 cells, CCK8 cell viability assay; format: cell-based; conditions: Mus musculus, 72 hours, stably expressing RET kinase
Text: as §2, §3

[9] = tested on: TEL-PDGFRα-BaF3; assay: Proliferation of TEL-PDGFRα-BaF3 cells, CCK8 cell viability assay; format: cell-based; conditions: Mus musculus, 72 hours, stably expressing PDGFRα kinase
Summary of the method: as §4

[10] = tested on: TEL-PDGFRβ-BaF3; assay: Proliferation of TEL-PDGFRβ-BaF3 cells, CCK8 cell viability assay; format: cell-based; conditions: Mus musculus, 72 hours, stably expressing PDGFRβ kinase
Summary of the method: as §4

[11] = tested on: TEL-VEGFR2-BaF3; assay: Proliferation of TEL-VEGFR2-BaF3 cells, CCK8 cell viability assay; format: cell-based; conditions: Mus musculus, 72 hours, stably expressing VEGFR2 kinase
Summary of the method: as §1

Row | GI50 [1] [nM] | GI50 [2] [nM] | GI50 [3] [nM] | GI50 [4] [nM] | GI50 [5] [nM] | GI50 [6] [nM] | GI50 [7] [nM] | GI50 [8] [nM] | GI50 [9] [nM] | GI50 [10] [nM] | GI50 [11] [nM] | Compound
1 | > 10000 | > 10000 | > 10000 | 855 | 9220 | 814 | 206 | > 10000 | 5 | 7 | 2580 | CC(C)C(=O)Nc1cc(Oc2ccc(NC(=O)Cc3cccc(C(F)(F)F)c3)cc2)ncn1 [Example 50, N-(6-{4-[2-(3-trifluoromethyl-phenyl)-acetylamino]-phenoxy}-pyrimidin-4-yl)-isobutyramide]
2 | > 10000 | > 10000 | > 10000 | 8350 | > 10000 | 546 | 142 | > 10000 | 28 | 89 | 3170 | CCC(=O)Nc1cc(Oc2ccc(NC(=O)Cc3ccccc3C(F)(F)F)cc2)ncn1 [Example 47, N-(6-{4-[2-(2-trifluoromethyl-phenyl)-acetylamino]-phenoxy}-pyrimidin-4-yl)-propanamide]
3 | 1170 | 2800 | 1540 | 2560 | 2270 | 694 | 149 | 1920 | 150 | 180 | 890 | Cc1ccc(NC(=O)NC2CCC(Oc3cc(NCCNC(=O)OC(C)(C)C)ncn3)CC2)cc1C(F)(F)F (centres unmarked) [Example 124, [2-(6-{4-[3-(4-methyl-3-trifluoromethyl-phenyl)-ureido]-cyclohexyloxy}-pyrimidin-4-ylamino)-ethyl]-aminotert-butyl Formate]
4 | > 10000 | > 10000 | > 10000 | > 10000 | > 10000 | 744 | 129 | 229 | 13 | 105 | 553 | CC(=O)Nc1cc(Oc2ccc(NC(=O)Cc3ccccc3Br)cc2)ncn1 [Example 17, N-[4-(6-acetylamino-pyrimidin-4-yloxy)-phenyl]-2-(2-bromo-phenyl)-acetamide]
5 | 5500 | 5380 | 4110 | 5180 | 3910 | 198 | 274 | 3590 | 94 | 96 | 3770 | Cc1ccc(NC(=O)N[C@H]2CC[C@H](Oc3cc(NCCO)ncn3)CC2)cc1C(F)(F)F [Example 42, 1-((1R,4R)-4-((6-((2-hydroxyethyl)amino)pyrimidin-4-yl)oxy)cyclohexyl)-3-(4-methyl-3-(trifluoromethyl)phenyl)urea]
6 | > 10000 | > 10000 | > 10000 | > 10000 | > 10000 | 1100 | 346 | > 10000 | 227 | 271 | 1520 | COc1cc(CC(=O)Nc2ccc(Oc3cc(NC(C)=O)ncn3)cc2)ccc1O [Example 11, N-[4-(6-acetylamino-pyrimidin-4-yloxy)-phenyl]-2-(4-hydroxy-3-methoxy-phenyl)-acetamide]
7 | > 10000 | > 10000 | > 10000 | > 10000 | > 10000 | 713 | 284 | > 10000 | 89 | 341 | 1240 | CC(=O)Nc1cc(Oc2ccc(NC(=O)C(O)c3ccc(Br)cc3)cc2)ncn1 (centres unmarked) [Example 14, N-[4-(6-acetylamino-pyrimidin-4-yloxy)-phenyl]-2-(4-bromo-phenyl)-2-hydroxy-acetamide]
8 | > 10000 | > 10000 | > 10000 | 2130 | 8640 | 649 | 204 | 672 | 20 | 29 | 229 | CC(=O)Nc1cc(Oc2ccc(NC(=O)Cc3cccc(Oc4ccccc4)c3)cc2)ncn1 [Example 12, N-[4-(6-acetylamino-pyrimidin-4-yloxy)-phenyl]-2-(3-phenoxy-phenyl)-acetamide]
9 | 7880 | > 10000 | 9170 | 5100 | 765 | 228 | 87 | 4030 | 24 | 248 | 3030 | Cc1ccc(NC(=O)N[C@H]2CC[C@H](Oc3cc(NCCN)ncn3)CC2)cc1C(F)(F)F [Example 46, 1-((1R,4R)-4-((6-((2-aminoethyl)amino)pyrimidin-4-yl)oxy)cyclohexyl)-3-(4-methyl-3-(trifluoromethyl)phenyl)urea]
10 | > 10000 | > 10000 | > 10000 | > 10000 | > 10000 | 1760 | 331 | > 10000 | 77 | 356 | 3100 | COc1ccccc1CC(=O)Nc1ccc(Oc2cc(NC(C)=O)ncn2)cc1 [Example 24, N-[4-(6-acetylamino-pyrimidin-4-yloxy)-phenyl]-2-(2-methoxy-phenyl)-acetamide]
11 | > 10000 | > 10000 | > 10000 | 584 | 5630 | 12 | 2 | > 10000 | 4 | 10 | 304 | CC(=O)Nc1cc(Oc2ccc(NC(=O)Cc3cccc([N+](=O)[O-])c3C)cc2)ncn1 [Example 9, N-[4-(6-acetylamino-pyrimidin-4-yloxy)-phenyl]-2-(2-methyl-3-nitro-phenyl)-acetamide]
12 | > 10000 | > 10000 | > 10000 | > 10000 | > 10000 | 1100 | 340 | > 10000 | 110 | 750 | 8300 | COCCNc1cc(Oc2ccc(NC(=O)Nc3ccc(CN4CCN(C)CC4)cc3)cc2)ncn1 [Example 172, 1-{4-[6-(2-methoxy-ethylamino)-pyrimidin-4-yloxy]-phenyl}-3-[4-(4-methyl-piperazin-1-ylmethyl)-phenyl]-urea]
13 | > 10000 | > 10000 | > 10000 | 5680 | > 10000 | 1570 | 170 | > 10000 | 165 | 154 |  | COCCNc1cc(Oc2ccc(NC(=O)Nc3ccc(C(F)(F)F)cc3)cc2)ncn1 [Example 73, 1-{4-[6-(2-methoxy-ethylamino)-pyrimidin-4-yloxy]-phenyl}-3-(4-trifluoromethyl-phenyl)-urea]
14 | 9010 |  | 1720 | 330 | 2850 | 22 | 3 | 331 | 112 | 315 | 39 | COc1ccc(CNc2cc(Oc3ccc(NC(=O)Nc4ccc(CN5CCNCC5)c(C(F)(F)F)c4)cc3)ncn2)cc1 [Example 180, 1-{4-[6-(4-methoxy-benzylamino)-pyrimidin-4-yloxy]-phenyl}-3-(4-piperazin-1-ylmethyl-3-trifluoromethyl-phenyl)-urea]
